From article PMC4503722, “Novel Phenotypic Outcomes Identified for a Public Collection of Approved Drugs from a Publicly Accessible Panel of Assays” (PLoS ONE, 2015) come the findings set out here.

In assay [1] the test system is endothelial tube formation in co-cultures of ECFCs and ADSCs treated with VEGF. As to the kind of experiment: cells. It counts as cell-based, human.
Another assay concerns NCI-H716 cells. Briefly: cells. The settings on record: for hNCI-H716 GLP1 Secretion IC50/EC50: assay number 12; for IC50/EC50, hNCI-H716 GLP1 Secretion (assay number 12): concentration response. It counts as cell-based, Human.
A further assay deals with STC-1 cell line. It counts as cell-based, mouse. The settings on record: for mSTC-1 GLP1 Secretion IC50/EC50: assay number 13; for IC50/EC50, mSTC-1 GLP1 Secretion (assay number 13): concentration response.
Another assay relates to HeLa cells. As to the kind of experiment: cells. It counts as cell-based.
Assay [2] relates to ECFC/ADSC co-culture cell nuclei number.
In another assay the test system is DLD-1. As to the kind of experiment: cells. Format: cell-based. As to conditions: assay number 23; basal.
Another assay deals with HCT116. Briefly: cells. It counts as cell-based. The settings on record: assay number 25; basal.
The subject of a further assay is Colo320. Briefly: cells. It counts as cell-based. The settings on record: assay number 27; basal.
The subject of another assay is HT-29. As to the kind of experiment: cells. Format: cell-based. As to conditions: assay number 28; basal.
A further assay concerns RKO. Briefly: cells. It counts as cell-based. The settings on record: assay number 29; basal.
The next assay relates to SNU-C1. Briefly: cells. The settings on record: assay number 30; basal. Format: cell-based.

On to `O=C(O)C[CH2][Ge](=[O])[O][Ge](=[O])[CH2]CC(=O)O` [NCGC00164525-02], for which the “VEGF_ADSC\ECFC Angio CD31 TubeArea IC50/EC50” value in assay [1] amounted to 0.1546 µM. Also, the “hNCI-H716 GLP1 Secretion IC50/EC50” value with NCI-H716 cells worked out at 1.5271 µM. Also, the “mSTC-1 GLP1 Secretion IC50/EC50” value in the assay with STC-1 cell line is reported as 0.7932 µM. Besides, in the assay on HeLa cells (assay number 14, 2N), the “Hela CellCycMod PI 2N IC50/EC50” value is reported as over 10 µM. Besides, the “Hela CellCycMod PI S Phase IC50/EC50” value in the assay on HeLa cells (assay number 15, S phase) was over 10 µM. Besides, in the assay on HeLa cells (assay number 16, 4N), the “Hela CellCycMod PI 4N IC50/EC50” value is over 10 µM. For the same molecule, the “Hela CellCycMod PI MI IC50/EC50” value with HeLa cells (assay number 17, MI) is over 10 µM. In addition, the “Hela CellCycMod PI Cell Number IC50/EC50” value in the assay with HeLa cells (assay number 18, cell number) is on record as 0.5034 µM. For the same molecule, the “VEGF_ADSC\ECFC Angio Hoechst NucArea IC50/EC50” value in assay [2] is 0.2606 µM.
For `OC1(c2ccc(Cl)c(C(F)(F)F)c2)CCN(CCCC(c2ccc(F)cc2)c2ccc(F)cc2)CC1` [NCGC00165865-02], the “hNCI-H716 GLP1 Secretion IC50/EC50” value in the assay on NCI-H716 cells is 8.448 µM. For the same molecule, the “mSTC-1 GLP1 Secretion IC50/EC50” value in the assay on STC-1 cell line is recorded as over 40 µM. In addition, the “Basal_Viability ATP DLD-1 IC50/EC50” value in the assay with DLD-1 stood at 1.1393 µM. Besides, in the assay on HCT116, the “Basal_Viability ATP HCT116 IC50/EC50” value was 1.853 µM. In the assay with Colo320, the “Basal_Viability ATP Colo 320 IC50/EC50” value was 0.9617 µM. Moreover, the “Basal_Viability ATP HT-29 IC50/EC50” value in the assay on HT-29 amounted to 0.9459 µM. For the same molecule, in the assay with RKO, the “Basal_Viability ATP RKO IC50/EC50” value stood at 0.9712 µM. Moreover, the “Basal_Viability ATP SNU-C1 IC50/EC50” value with SNU-C1 is reported as 0.1675 µM.
As to `CC1=C(C(=O)OC(C)C)C(c2cccc([N+](=O)[O-])c2)C(C(=O)OC2CN(C(c3ccccc3)c3ccccc3)C2)=C(N)N1` (stereo not shown) [NCGC00167436-02], in assay [1], the “VEGF_ADSC\ECFC Angio CD31 TubeArea IC50/EC50” value came to 3.5833 µM. Also, the “hNCI-H716 GLP1 Secretion IC50/EC50” value in the assay with NCI-H716 cells was found to be 12.7519 µM. Moreover, the “mSTC-1 GLP1 Secretion IC50/EC50” value in the assay on STC-1 cell line turned out to be 1.234 µM. The “VEGF_ADSC\ECFC Angio Hoechst NucArea IC50/EC50” value in assay [2] turned out to be 7.394 µM.
For `Clc1ccc(CO/N=C(\Cn2ccnc2)c2ccc(Cl)cc2Cl)c(Cl)c1.O=[N+]([O-])O` [NCGC00177980-03], in that order: over 10 µM, over 40 µM, over 40 µM and 8.846 µM.
With `C[C@@H](NCCCc1cccc(C(F)(F)F)c1)c1cccc2ccccc12.Cl` [NCGC00181002-04], the “VEGF_ADSC\ECFC Angio CD31 TubeArea IC50/EC50” value in assay [1] is on record as over 10 µM. Besides, in the assay on NCI-H716 cells, the “hNCI-H716 GLP1 Secretion IC50/EC50” value is on record as 17.1869 µM. In addition, the “mSTC-1 GLP1 Secretion IC50/EC50” value with STC-1 cell line is recorded as over 40 µM. In assay [2], the “VEGF_ADSC\ECFC Angio Hoechst NucArea IC50/EC50” value is recorded as over 10 µM.
As for `O=C(Nc1ccc(S(=O)(=O)N2CCOCC2)cc1)c1cc(Cl)ccc1NS(=O)(=O)c1ccc(Cl)s1` [NCGC00249417-02], the “VEGF_ADSC\ECFC Angio CD31 TubeArea IC50/EC50” value in assay [1] is over 10 µM. In addition, the “hNCI-H716 GLP1 Secretion IC50/EC50” value in the assay with NCI-H716 cells was over 40 µM. The “mSTC-1 GLP1 Secretion IC50/EC50” value in the assay on STC-1 cell line is reported as over 40 µM. In addition, the “VEGF_ADSC\ECFC Angio Hoechst NucArea IC50/EC50” value in [2] is over 10 µM.
As for `O=c1[nH]sc2cc(Cl)ccc12` [NCGC00262908-01], the “IC50/EC50, VEGF_ADSC\ECFC Angio CD31 TubeArea (assay number 2)” value in [1] is over 10 µM. Further, the “IC50/EC50, hNCI-H716 GLP1 Secretion (assay number 12)” value in the assay with NCI-H716 cells is over 40 µM. Also, the “IC50/EC50, mSTC-1 GLP1 Secretion (assay number 13)” value in the assay with STC-1 cell line was over 40 µM. In addition, in assay [2], the “IC50/EC50, VEGF_ADSC\ECFC Angio Hoechst NucArea (assay number 3)” value was found to be 9.427 µM.
Take `Cl.Nc1cc(C(F)(F)F)ccc1S` [NCGC00262926-01]: the “VEGF_ADSC\ECFC Angio CD31 TubeArea IC50/EC50” value in [1] is on record as over 10 µM. In the assay with NCI-H716 cells, the “hNCI-H716 GLP1 Secretion IC50/EC50” value was determined as 15.3214 µM. For the same molecule, in the assay with STC-1 cell line, the “mSTC-1 GLP1 Secretion IC50/EC50” value is given as 1.1561 µM. For the same molecule, the “VEGF_ADSC\ECFC Angio Hoechst NucArea IC50/EC50” value in assay [2] is on record as over 10 µM.
As for `COc1ccc(OC(=O)N(CC(=O)O)Cc2ccc(OCCc3nc(-c4ccccc4)oc3C)cc2)cc1` [NCGC00262954-01], the “hNCI-H716 GLP1 Secretion IC50/EC50” value in the assay with NCI-H716 cells came out at 36.168 µM. In the assay with STC-1 cell line, the “mSTC-1 GLP1 Secretion IC50/EC50” value is recorded as 1.5351 µM.
Consider `[Cl][Pt+2][Cl].[NH2-].[NH2-]` [NCGC00263537-01], for which the “IC50/EC50, hNCI-H716 GLP1 Secretion (assay number 12)” value in the assay with NCI-H716 cells was over 40 µM. Also, the “IC50/EC50, mSTC-1 GLP1 Secretion (assay number 13)” value with STC-1 cell line is over 40 µM.
Regarding `CN(C)[C@@H]1C(=O)C(C(=O)NCN2CCCC2)=C(O)[C@@]2(O)C(=O)C3=C(O)c4c(O)cccc4[C@@](C)(O)[C@H]3C[C@@H]12` [NCGC00263906-02], the “hNCI-H716 GLP1 Secretion IC50/EC50” value with NCI-H716 cells was over 40 µM. In addition, the “mSTC-1 GLP1 Secretion IC50/EC50” value in the assay on STC-1 cell line is over 40 µM.
Turning to propagermanium [reference compound], in the assay with NCI-H716 cells, the “activity in NCI-H716 GLP-1 secretion assay (in words)” value was “potent actives”. Besides, the “activity in STC-1 GLP-1 secretion assay (in words)” value in the assay on STC-1 cell line is on record as “potent actives”.
